Assay [1] has as its system rat hind paw incision model. In words: Brennan incisional pain model, prophylactic paradigm. The format is in vivo. The following applies: single pre-surgical dose; 24 h, 48 h, 72 h post dose; FIG. 11. An excerpt: (§1) Two incisional pain models were used to assess Compound 1 effects on hyperalgesia. The first model is referred to as the Brennan model in which, under anesthesia, a 1 cm longitudinal incision to the skin and underlying fascia of a rat hindpaw is made. The second is a variation but is a more invasive procedure in which the skin and muscle are spread apart using forceps which creates a longer-lasting hypersensitivity.
Using the Brennan protocol and a prophylactic paradigm, Compound 1 (3 doses given PO) or vehicle was administered 15 min prior to incision. At the 24-, 48-, and 72-h time points post-incision, mechanical thresholds were obtained (manual von Frey filament, using up/down method).
In a subsequent experiment, the same paradigm was used with Compound 1 administered at a dose of 30 mg/kg PO along with positive control group consisting of celecoxib (30 mg/kg PO), morphine (10 mg/kg SC), and vehicle.

Assay [2] relates to established incision-induced mechanical hyperalgesia. In words: Brennan incisional pain model, treatment paradigm. In kind it is in vivo, rat. The following applies: morphine 3 mg/kg SC.
Text: as §1
Using the Brennan protocol and a treatment paradigm in rat, Compound 1 (10 and 30 mg/kg PO), morphine (3 mg/kg SC) or vehicle were administered daily at 24 h post-incision, and again at 48 and 72 h post-incision. Mechanical thresholds were obtained at 1 h and 2 h post-dose in all cohorts on all days.

Structures are written as SMILES.

For the compound `CN1CC[C@]23c4c5ccc(O)c4O[C@H]2[C@@H](O)C=C[C@H]3[C@H]1C5` [morphine, reference compound], the “effect on development of mechanical hyperalgesia” value in assay [1] is recorded as “no effect”. The “effect on established mechanical hyperalgesia (overall)” value in assay [2] (Compound 1 10 and 30 mg/kg PO daily, FIG. 12) was “analgesic at t=1 h on d1, and at t=1 h and 2 h post-dose on d2 and d3”. Also, the analgesia result in assay [2] (Day 1, 2-h time point) is “this effect waned”. The mechanical threshold in assay [2] (Day 1, 1 h post-dose) is listed as 45 g; in assay [2] (Day 2 prior to dosing (Pre-Drug (D2))), less than 15 g. For the same compound, the hyperalgesia result is “not hyperalgesic” in assay [2] (Day 2, 1-h time point) and “mild hyperalgesia” in assay [2] (Day 2, 2 h).
With `Cc1ccc(-c2cc(C(F)(F)F)nn2-c2ccc(S(N)(=O)=O)cc2)cc1` [celecoxib, reference compound], the “effect on development of mechanical hyperalgesia” value in assay [1] is “no effect”.
